In publication PMC7191384, “Multimodal α-Glucosidase and α-Amylase Inhibition and Antioxidant Effect of the Aqueous and Methanol Extracts from the Trunk Bark of Ceiba pentandra” (BioMed Research International, 2020):
One block for each molecule: values may come before it.

Tests used:
[1] = Hydrogen peroxide scavenging activity
Method: A method previously described by Ruch et al. was used to assess the ability of plant extracts to decompose hydrogen peroxide (H2O2). Briefly, a 40 mM solution of H2O2 prepared in phosphate buffer (pH 7.4) was mixed with graded concentrations (1-300 μg/ml) of extracts or ascorbic acid. After 10 min of incubation, optical densities were read at 230 nm against a blank solution made up of phosphate buffer without H2O2. The percentage of H2O2 scavenging activity was calculated as in the previous test.

[2] = Superoxide anion scavenging test (PMS-NADH/NBT)
Method: Superoxide anions were generated in a phenazine methosulfate- (PMS-) NADH system. The reaction mixture was made of 0.5 ml test solution, 0.95 ml 0.1 M phosphate buffer (pH 7.4), 0.5 ml […] in phosphate buffer (pH 7.4). Extracts were used at concentrations of 1, 3, 10, 30, 100, and 300 μg/ml. Gallic acid was tested at the same concentrations and used as a reference drug. Reduction of nitroblue tetrazolium was monitored at 560 nm on a Helios Epsilon Spectrophotometer (Thermo Fisher Scientific). The test was carried out in triplicate. The percent inhibition was calculated as follows: […]

[3] = system: BSA oxidation induced by H2O2; experiment: H2O2-induced protein oxidation assay (BSA thiol groups); set-up: species or system bovine
Method: (§1) The effect of plant extracts against protein oxidation was evaluated according to the method of Simplicio et al. with some modifications. Zero point five milliliter aliquots of BSA (30 mg/ml) prepared in phosphate buffer saline (50 mM, pH 7.4) were incubated with 0.5 ml of extracts or gallic acid. Fifteen minutes later, 0.5 ml of H2O2 (20 mM) or AAPH (2′,2′-azobis (2-methylpropionamidine) dihydrochloride) solution (50 mM) in another set of experiment, was added to the reaction medium and incubated at 37°C for 30 minutes and 1 hour, respectively. Proteins were precipitated with ammonium sulfate (70%) followed by vigorous shaking and centrifugation at 3000 rpm. The pellet obtained was resuspended in 1.5 ml of PBS, and 0.2 ml of Ellman's reagent was introduced. The level of thiol groups was measured 10 minutes later at 412 nm.

[4] = system: BSA oxidation induced by AAPH; experiment: AAPH-induced protein oxidation assay (BSA thiol groups); set-up: species or system bovine
Method: as §1

[5] = molecular target: T1, α-glucosidase (Saccharomyces cerevisiae, UniProt P53341); experiment: α-Glucosidase inhibitory test (pNPG); type: biochemical; conditions: according to the efficacy index
T1 construct: purchased Sigma-Aldrich Chemical Co. (Taufkirchen, Germany)
Method: The ability of C. pentandra extracts to inhibit the activity of α-glucosidase was assessed according to Kim et al.'s protocol. Shortly, α-glucosidase (1 U/ml) from Saccharomyces cerevisiae was preincubated with 250 μl extracts for 10 minutes. P-nitrophenyl glucopyranoside substrate solution (pNPG, 3 mM) prepared in 20 mM phosphate buffer (pH 6.9) containing 2 mg/ml BSA was added to start the reaction. The reaction mixture was incubated at 37°C for 20 minutes and stopped with 1 ml of Na2CO3 (1 M). α-Glucosidase activity was determined by measuring paranitrophenol released from pNPG at 405 nm. The percent inhibition was calculated as follows: (3) %inhibition=OD control−OD sample/OD control×100.

T1 sequence (P53341 whole entry): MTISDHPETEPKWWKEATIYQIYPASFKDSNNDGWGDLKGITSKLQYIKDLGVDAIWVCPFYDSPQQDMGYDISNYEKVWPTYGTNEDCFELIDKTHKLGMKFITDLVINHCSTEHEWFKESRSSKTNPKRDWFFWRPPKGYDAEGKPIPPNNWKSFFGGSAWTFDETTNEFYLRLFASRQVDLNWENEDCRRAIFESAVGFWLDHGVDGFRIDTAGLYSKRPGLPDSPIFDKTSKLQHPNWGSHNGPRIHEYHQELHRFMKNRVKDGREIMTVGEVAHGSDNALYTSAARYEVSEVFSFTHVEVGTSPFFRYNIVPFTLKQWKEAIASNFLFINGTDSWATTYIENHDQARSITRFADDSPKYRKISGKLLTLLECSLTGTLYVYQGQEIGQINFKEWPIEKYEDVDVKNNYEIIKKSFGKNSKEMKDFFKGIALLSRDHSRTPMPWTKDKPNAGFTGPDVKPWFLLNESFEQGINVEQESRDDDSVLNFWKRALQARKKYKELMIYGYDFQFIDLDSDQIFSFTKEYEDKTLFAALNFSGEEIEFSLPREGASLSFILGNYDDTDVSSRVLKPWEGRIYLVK

Hydrogen peroxide IC50 ([1]; 1-300 μg/ml, 10 min incubation): 13.84 µg/mL
SMILES: O=C1O[C@H]([C@@H](O)CO)C(O)=C1O [Ascorbic acid, ascorbic acid]
Hydrogen peroxide EI (efficiency index) [1]: 4.77

Superoxide anion EI (efficiency index, maximal activity/IC50) [2]: 1.43
Superoxide anion IC50 ([2]; concentrations 1-300 μg/ml): 55.66 µg/mL
H2O2 protein oxidation IC50 ([3]; BSA, H2O2 20 mM, 37°C, 30 minutes): 29.9 µg/mL
AAPH protein oxidation IC50 ([4]; BSA, AAPH 50 mM, 37°C, 1 hour): 90.17 µg/mL
SMILES: O=C(O)c1cc(O)c(O)c(O)c1 [Gallic acid, gallic acid]
H2O2 protein oxidation EI (efficiency index) [3]: 1.74
AAPH protein oxidation EI (efficiency index) [4]: 0.64

SMILES: C[C@H]1O[C@H](O[C@H]2[C@H](O)[C@@H](O)[C@@H](O[C@H]3[C@H](O)[C@@H](O)C(O)O[C@@H]3CO)O[C@@H]2CO)[C@H](O)[C@@H](O)[C@@H]1N[C@H]1C=C(CO)[C@@H](O)[C@H](O)[C@H]1O (stereo partly shown) [Acarbose, acarbose]
α-Glucosidase: inhibitory effect, times greater than that of the methanol extract [5]: 10 times
α-Glucosidase: inhibitory effect, times the magnitude of the aqueous extract [5]: more than 15 times
